Results from the CheMixHub ionic liquid set.

Assay: xn = mol fraction of the nth substance listed
Details: 100 kPa

CCCC[N+]1(C)CCCC1.N#C[C-](C#N)C#N + O
Details	electrical conductivity [S/m]	viscosity [mPa·s]
288.15 K, x2 = 0.0718	0.723	40.02
288.15 K, x2 = 0.1358	0.799	35.64
288.15 K, x2 = 0.1942	0.872	32.15
288.15 K, x2 = 0.2886	0.993	27.21
288.15 K, x2 = 0.3569	1.09	24.1
288.15 K, x2 = 0.431	1.21	21.17
288.15 K, x2 = 0.5238	1.38	17.74
288.15 K, x2 = 0.6162	1.55	15
288.15 K, x2 = 0.7143	1.8	12.05
288.15 K, x2 = 0.7708	1.9	10.98
293.15 K, x2 = 0.0718	0.882	32.78
293.15 K, x2 = 0.1358	0.957	29.3
293.15 K, x2 = 0.1942	1.04	26.51
293.15 K, x2 = 0.2886	1.18	22.51
293.15 K, x2 = 0.3569	1.3	20
293.15 K, x2 = 0.431	1.44	17.55
293.15 K, x2 = 0.5238	1.63	14.75
293.15 K, x2 = 0.6162	1.86	12.41
293.15 K, x2 = 0.7143	2.14	9.96
293.15 K, x2 = 0.7708	2.26	9.06
298.15 K, x2 = 0.0718	1.05	27.26
298.15 K, x2 = 0.1358	1.13	24.45
298.15 K, x2 = 0.1942	1.23	22.18
298.15 K, x2 = 0.2886	1.39	18.9
298.15 K, x2 = 0.3569	1.52	16.78
298.15 K, x2 = 0.431	1.69	14.76
298.15 K, x2 = 0.5238	1.92	12.43
298.15 K, x2 = 0.6162	2.18	10.42
298.15 K, x2 = 0.7143	2.52	8.36
298.15 K, x2 = 0.7708	2.67	7.58
303.15 K, x2 = 0.0718	1.22	22.88
303.15 K, x2 = 0.1358	1.32	20.68
303.15 K, x2 = 0.1942	1.43	18.8
303.15 K, x2 = 0.2886	1.61	16.06
303.15 K, x2 = 0.3569	1.76	14.28
303.15 K, x2 = 0.431	1.96	12.58
303.15 K, x2 = 0.5238	2.22	10.62
303.15 K, x2 = 0.6162	2.52	8.87
303.15 K, x2 = 0.7143	2.93	7.1
303.15 K, x2 = 0.7708	3.09	6.47
308.15 K, x2 = 0.0718	1.42	19.58
308.15 K, x2 = 0.1358	1.53	17.69
308.15 K, x2 = 0.1942	1.65	16.13
308.15 K, x2 = 0.2886	1.85	13.82
308.15 K, x2 = 0.3569	2.03	12.3
308.15 K, x2 = 0.431	2.22	10.84
308.15 K, x2 = 0.5238	2.56	9.18
308.15 K, x2 = 0.6162	2.9	7.65
308.15 K, x2 = 0.7143	3.35	6.11
308.15 K, x2 = 0.7708	3.54	5.56
313.15 K, x2 = 0.0718	1.62	16.87
313.15 K, x2 = 0.1358	1.74	15.26
313.15 K, x2 = 0.1942	1.87	13.96
313.15 K, x2 = 0.2886	2.11	12
313.15 K, x2 = 0.3569	2.3	10.7
313.15 K, x2 = 0.431	2.54	9.44
313.15 K, x2 = 0.5238	2.89	8.02
313.15 K, x2 = 0.6162	3.28	6.68
313.15 K, x2 = 0.7143	3.81	5.31
313.15 K, x2 = 0.7708	4.02	4.83
318.15 K, x2 = 0.0718	1.84	14.68
318.15 K, x2 = 0.1358	1.97	13.34
318.15 K, x2 = 0.1942	2.12	12.27
318.15 K, x2 = 0.2886	2.37	10.52
318.15 K, x2 = 0.3569	2.6	9.39
318.15 K, x2 = 0.431	2.87	8.29
318.15 K, x2 = 0.5238	3.25	7.06
318.15 K, x2 = 0.6162	3.7	5.83
318.15 K, x2 = 0.7143	4.28	4.66
318.15 K, x2 = 0.7708	4.53	4.24
323.15 K, x2 = 0.0718	2.07	12.88
323.15 K, x2 = 0.1358	2.22	11.74
323.15 K, x2 = 0.1942	2.37	10.81
323.15 K, x2 = 0.2886	2.66	9.3
323.15 K, x2 = 0.3569	2.9	8.31
323.15 K, x2 = 0.431	3.19	7.34
323.15 K, x2 = 0.5238	3.63	6.28
323.15 K, x2 = 0.6162	4.12	5.16
323.15 K, x2 = 0.7143	4.78	4.13
323.15 K, x2 = 0.7708	5.06	3.75
328.15 K, x2 = 0.0718	2.31	11.39
328.15 K, x2 = 0.1358	2.48	10.41
328.15 K, x2 = 0.1942	2.65	9.6
328.15 K, x2 = 0.2886	2.96	8.28
328.15 K, x2 = 0.3569	3.21	7.41
328.15 K, x2 = 0.431	3.54	6.56
328.15 K, x2 = 0.5238	4.02	5.63
328.15 K, x2 = 0.6162	4.57	4.61
328.15 K, x2 = 0.7143	5.29	3.68
328.15 K, x2 = 0.7708	5.61	3.35
333.15 K, x2 = 0.0718	2.58	10.14
333.15 K, x2 = 0.1358	2.75	9.29
333.15 K, x2 = 0.1942	2.93	8.58
333.15 K, x2 = 0.2886	3.27	7.42
333.15 K, x2 = 0.3569	3.54	6.65
333.15 K, x2 = 0.431	3.91	5.89
333.15 K, x2 = 0.5238	4.43	5.07
333.15 K, x2 = 0.6162	5.01	4.15
333.15 K, x2 = 0.7143	5.83	3.3
333.15 K, x2 = 0.7708	6.17	3.01
